Source: publication PMC11915801, “Evolutionary trajectory of bacterial resistance to antibiotics and antimicrobial peptides in Escherichia coli” (mSystems, 2025)
In brackets after ≈: the same amount, converted by molar mass. Like-named read-outs stand apart in the source and are kept apart here. Where a SMILES comes first, the peptide text is derived from it.

How the values were obtained:
[1] = test system: mice infected with MG1655; conditions: 5.0 × 10^8 CFU i.p.; trimethoprim 60 mg/kg i.p. 1 h after infection; organs at 48 h; n = 6
Protocol: Female BALB/c mice aged 6 to 8 weeks were randomly divided into four groups with six replicates for each group. Of bacterial suspension, 5.0 × 10^8 CFU was intraperitoneally injected to mice for 1 h, followed by a second intraperitoneal injection of trimethoprim (60 mg/kg) or pexiganan (10 mg/kg) or a combination of trimethoprim and pexiganan (30 + 5 mg/kg). The PBS injection group was used as a control. After 48 h, the liver, spleen, and kidneys of the mice were aseptically removed for CFU measurement.

[2] = test system: MG1655 icd-i; test: MIC, CRISPRi icd-repressed MG1655; assay type: cell-based; conditions: Escherichia coli, broth microdilution, CRISPRi repression of icd, read-out: MIC values of MG1655 with gene silencing, icd-i
Description: (§1) The broth microdilution method was used to measure the MIC values of antibiotics and peptides according to the Clinical and Laboratory Standards Institute guidelines. The MIC value is defined as the lowest drug concentration without visible bacteria.
(§2) The engineered CRISPR/CRISPR-associated protein 9 (Cas9) system was used to repress the dnaA, deoB, icd, and thyA genes. Briefly, spacer 1 (5-[…]-3), spacer 2 (5-[…]-3), spacer 3 (5-[…]-3), and spacer 4 (5-[…]-3) were synthesized, and then, the construction of the targeting plasmid psgRNA was performed in a total volume of 25 µL. Subsequently, 1.5 µL of each newly constructed psgRNA and dCas9 was simultaneously electroporated into the competent cells of MG1655. MG1655 containing unmodified psgRNA and dCas9 was used as a control. Anhydrotetracycline at a final concentration of 0.5 µg/mL was used to induce gene repression. RT-qPCR was used to verify the expression of the genes.

[3] = test system: MG1655 WT; test: microbe, parasite or virus in culture; assay type: cell-based; conditions: Escherichia coli, MG1655, read-out: MIC values of MG1655 with gene silencing, WT
Description: as §1, §2

[4] = test system: E. coli K-12 MG1655; test: microbe, parasite or virus in culture; assay type: cell-based, Escherichia coli; conditions: Escherichia coli
Protocol: as §1
Eight antibiotics and ten AMPs at the sub-inhibitory concentration were prepared. A 300-µL system, including 260 µL of MH broth, 30 µL of prepared drug, and 10 µL of bacterial culture, was used for resistance passages. After 12 h of incubation at 37℃ and 200 rpm, 10 µL of the above bacterial culture was added into the new sterile drug-containing broth. MIC values of bacterial culture were determined. The drug concentration was adjusted according to the MIC value change until the end of the 120 passages.

[5] = test system: AZI120 (evolved MG1655); test: microbe, parasite or virus in culture; assay type: cell-based, Escherichia coli; conditions: Escherichia coli, MG1655; broth microdilution; azithromycin-evolved strain
Description: (§3) To ensure the stable resistance evolution and inheritance of MG1655 under different drugs, we randomly selected three monoclonals from the evolved strains. The final antibiotic-evolved strains were designated as AMP120, AZI120, CHL80, CIP120, DOX120, KAN80, NIT70, and TMP30, while the final AMP-evolved strains were named COL120, Ind120, Omi120, Pex120, PGLA120, Pleu120, R8120, SAAP120, LI120, and SLAP120.
as §1

[6] = test system: TMP30 (evolved MG1655); test: microbe, parasite or virus in culture; assay type: cell-based, Escherichia coli; conditions: for MIC: Escherichia coli, MG1655, broth microdilution, trimethoprim-evolved strain
Description: as §3, §1

[7] = test system: CIP120 (evolved MG1655); test: microbe, parasite or virus in culture; assay type: cell-based, Escherichia coli; conditions: Escherichia coli; broth microdilution; ciprofloxacin-evolved strain
Description: as §3, §1

[8] = test system: DOX120 (evolved MG1655); test: microbe, parasite or virus in culture; assay type: cell-based, Escherichia coli; conditions: Escherichia coli, MG1655; broth microdilution; doxycycline-evolved strain
Description: as §3, §1

[9] = test system: NIT70 (evolved MG1655); test: microbe, parasite or virus in culture; assay type: cell-based, Escherichia coli; conditions: Escherichia coli, MG1655; broth microdilution; nitrofurantoin-evolved strain
Description: as §3, §1

[10] = test system: AMP120 (evolved MG1655); test: microbe, parasite or virus in culture; assay type: cell-based, Escherichia coli; conditions: Escherichia coli, MG1655; broth microdilution; ampicillin-evolved strain
Description: as §3, §1

[11] = test system: CHL80 (evolved MG1655); test: microbe, parasite or virus in culture; assay type: cell-based, Escherichia coli; conditions: Escherichia coli, MG1655; broth microdilution; chloramphenicol-evolved strain
Description: as §3, §1

[12] = test system: KAN80 (evolved MG1655); test: microbe, parasite or virus in culture; assay type: cell-based, Escherichia coli; conditions: Escherichia coli, MG1655; broth microdilution; kanamycin-evolved strain
Description: as §3, §1

[13] = test system: COL120 (evolved MG1655); test: microbe, parasite or virus in culture; assay type: cell-based, Escherichia coli; conditions: Escherichia coli, MG1655; broth microdilution; colistin-evolved strain
Description: as §3, §1

[14] = test system: MG1655 dnaA-i; test: MIC, CRISPRi dnaA-repressed MG1655; assay type: cell-based; conditions: Escherichia coli, broth microdilution, CRISPRi repression of dnaA, anhydrotetracycline 0.5 µg/mL, read-out: MIC values of MG1655 with gene silencing, dnaA-i
Description: as §1, §2

[15] = test system: MG1655 deoB-i; test: MIC, CRISPRi deoB-repressed MG1655; assay type: cell-based; conditions: Escherichia coli, broth microdilution, CRISPRi repression of deoB, read-out: MIC values of MG1655 with gene silencing, deoB-i
Description: as §1, §2

[16] = test system: MG1655 thyA-i; test: MIC, CRISPRi thyA-repressed MG1655; assay type: cell-based, Escherichia coli; conditions: for MIC: Escherichia coli, MG1655, broth microdilution, CRISPRi repression of thyA, read-out: MIC values of MG1655 with gene silencing, thyA-i
Description: as §1, §2

[17] = test system: chloramphenicol-resistant strains (CHL80); test: Disk diffusion experiment, chloramphenicol-resistant strains; assay type: cell-based, Escherichia coli; conditions: drug 2,048 µg/mL, LB agar, 37°C 24 h
Protocol: (§4) Fifty microliters of bacterial cultures was spread evenly onto LB agar. A prepared circular sterile filter paper was pasted on the center of the petri dish, and the corresponding drugs with a concentration of 2,048 µg/mL were dropped on the center of the circular filter paper. The petri dishes were placed at 37°C for 24 h, and the diameters of the sterile growth circles were measured.

[18] = test system: G. mellonella larvae infected with chloramphenicol-resistant strains; test: G. mellonella infection protection model, chloramphenicol-resistant strain; assay type: in vivo, Galleria mellonella; conditions: monotreatment 30 mg/kg at 1 h post-infection, 5 days, n = 8 per group
Protocol: (§5) The bacterial culture was uniformly diluted with saline to an OD600 of 0.35. G. mellonella larvae (n = 8 per group) were randomly divided, and sterile saline was used as the blank control. In the virulence assessment, 10 µL of bacterial solution was inoculated into each larva using a Hamilton syringe. The survival of larvae was observed and recorded daily for 7 days.
(§6) For the larval infection protection model, larvae were infected with wild-type and antibiotic-resistant strains and treated with a dose of 30 mg/kg of drugs at the left foot of the last gastropod at 1 h post-infection, and the survival was monitored for 5 days.

[19] = test system: G. mellonella larvae infected by the original MG1655; test: G. mellonella infection protection model, original MG1655; assay type: in vivo, Galleria mellonella; conditions: monotreatment 30 mg/kg at 1 h post-infection, 5 days, n = 8 per group
Protocol: as §5, §6

[20] = test system: chloramphenicol-resistant bacteria (CHL80); conditions: 15-min exposure, tenfold the MIC of MG1655, 1 × 10^6 CFU log-phase, CFU counting
Protocol: (§7) Bacteria were cultured at 37°C and 200 rpm to the logarithmic phase (1 × 10^6 CFU). The corresponding drugs, with a final concentration of tenfold the MIC of MG1655, were added. At 15, 30, 60, 90, and 120 min, 50 µL of the mixture was serially diluted 10-fold and dropped on an LB agar plate for CFU counting.

[21] = test system: original MG1655; conditions: tenfold the MIC of MG1655, 15-120 min, CFU counting
Protocol: as §7

[22] = test system: trimethoprim-resistant strains (TMP30); test: Disk diffusion experiment, trimethoprim-resistant strains; assay type: cell-based, Escherichia coli; conditions: drug 2,048 µg/mL, LB agar, 37°C 24 h
Protocol: as §4

[23] = MG1655, 12 h, read-out: MIC of MG1655 under the pressure of the same drug, generation 10
[24] = MG1655, read-out: MIC of MG1655 under the pressure of the same drug, generation primary
[25] = MG1655, as E2, generation 20, read-out: MIC of MG1655 under the pressure of the same drug, generation 20
[26] = MG1655, as E2, generation 30, read-out: MIC of MG1655 under the pressure of the same drug, generation 30

COc1cc(Cc2cnc(N)nc2N)cc(OC)c1OC [TMP, Trimethoprim]
bacterial loads in the liver, spleen, and kidneys of mice infected with MG1655 [1]: decreased significantly | MIC [2]: 128 µg/mL (≈ 441 µM) | MIC [3]: 64 µg/mL (≈ 220 µM) | MIC [4, 23]: 128 µg/mL | MIC [4, 24]: 64 µg/mL | MIC [4, 25]: 128 µg/mL | MIC [4, 26]: 512 µg/mL | MIC [5]: 64 µg/mL (≈ 220 µM) | MIC [6]: 512 µg/mL (≈ 1760 µM) | MIC [7]: 128 µg/mL (≈ 441 µM) | MIC [8]: 128 µg/mL (≈ 441 µM) | MIC [9]: 128 µg/mL (≈ 441 µM) | MIC [10]: 128 µg/mL (≈ 441 µM) | MIC [11]: 128 µg/mL (≈ 441 µM) | MIC [12]: 128 µg/mL (≈ 441 µM) | MIC [13]: 128 µg/mL (≈ 441 µM) | MIC [14]: 64 µg/mL (≈ 220 µM) | MIC [15]: 128 µg/mL (≈ 441 µM) | increase in MIC in thyA-i strains vs original MG1655 ([16]; CRISPRi thyA repression): four-fold increase in MIC | MIC [16]: 256 µg/mL (≈ 882 µM)

CC[C@H](C)[C@H](NC(=O)[C@H](CCCNC(=N)N)NC(=O)[C@H](CS)NC(=O)[C@H](CC(C)C)NC(=O)[C@H](CCCCN)NC(=O)[C@H](CCCCN)NC(=O)[C@H](CC(C)C)NC(=O)[C@@H](NC(=O)[C@H](CCCNC(=N)N)NC(=O)[C@H](CS)NC(=O)[C@H](CC(C)C)NC(=O)[C@H](CCCCN)NC(=O)[C@H](CCCCN)NC(=O)[C@@H](N)CC(C)C)[C@@H](C)CC)C(=O)O [LI, LI14] (H-LKKLCRILKKLCRI-OH; N-terminus and C-terminus assumed)
inhibition halo on chloramphenicol-resistant strains (in words) [17]: noticeable inhibitory effect | survival rate of larvae infected with chloramphenicol-resistant strains [18]: 62.5% | survival of larvae infected by the original MG1655 [19]: all larvae infected by the original MG1655 died

O=C1CN(/N=C/c2ccc([N+](=O)[O-])o2)C(=O)N1 [NIT, Nitrofurantoin]
killing of chloramphenicol-resistant bacteria (CFU) [20]: completely eradicated | CFU reduction of original MG1655 [21]: decreased by less than one-log | MIC [2]: 16 µg/mL (≈ 67.2 µM) | MIC [3]: 16 µg/mL (≈ 67.2 µM) | MIC [4, 23]: 16 µg/mL | MIC [4, 24]: 16 µg/mL | MIC [4, 25]: 16 µg/mL | MIC [4, 26]: 64 µg/mL | MIC ([4]; MG1655, as E2, generation 40, read-out: MIC of MG1655 under the pressure of the same drug, generation 40): 64 µg/mL | MIC ([4]; MG1655, as E2, generation 50, read-out: MIC of MG1655 under the pressure of the same drug, generation 50): 128 µg/mL | MIC ([4]; MG1655, as E2, generation 60, read-out: MIC of MG1655 under the pressure of the same drug, generation 60): 256 µg/mL | MIC ([4]; MG1655, as E2, generation 70, read-out: MIC of MG1655 under the pressure of the same drug, generation 70): 512 µg/mL | MIC [5]: 16 µg/mL (≈ 67.2 µM) | MIC [6]: 4 µg/mL (≈ 16.8 µM) | collateral sensitivity of TMP30 (fold change of MIC vs wild-type MG1655) ([6]; MIC of TMP30 compared with MG1655): exceeding fourfold | MIC [7]: 16 µg/mL (≈ 67.2 µM) | MIC [8]: 16 µg/mL (≈ 67.2 µM) | MIC [9]: 512 µg/mL (≈ 2150 µM) | MIC [10]: 16 µg/mL (≈ 67.2 µM) | MIC [11]: 4 µg/mL (≈ 16.8 µM) | MIC [12]: 8 µg/mL (≈ 33.6 µM) | MIC [13]: 8 µg/mL (≈ 33.6 µM) | MIC [14]: 16 µg/mL (≈ 67.2 µM) | MIC [15]: 16 µg/mL (≈ 67.2 µM) | inhibition halo on trimethoprim-resistant strains (in words) [22]: significant inhibitory effect | MIC [16]: 8 µg/mL (≈ 33.6 µM)
